Results reported in PubChem BioAssay AID2305 (GlaxoSmithKline (GSK), 2010).

System: P. falciparum 3D7 growth, pLDH absorbance
Assay: blood-stage malaria parasite growth potency – strain 3D7, dose response (AID 2305)

Compound | IC50 [nM]
CC(=O)Nc1ccc2[nH]cc(C3CCN(CC4CCN(C(=O)/C=C/c5ccc(Cl)c(Cl)c5)CC4)CC3)c2n1 | 160
CCn1ccc2c(N3CCCCS3(=O)=O)cc(C(=O)N[C@@H](Cc3ccccc3)[C@H](O)CNC(C)(C)c3cccc(C(F)(F)F)c3)cc21 | 130
CCN(CC)CCN(Cc1ccc(-c2ccc(C(F)(F)F)cc2)cc1)C(=O)Cn1c(CCc2cccc(F)c2F)nc(=O)c2ccccc21 | 670
CN(c1ccc2c(c1)nc(Nc1ccc(Cl)cc1)n2C)c1ccnc(Nc2ccc(CS(C)(=O)=O)cc2)n1 | 760
OC(CN1c2ccccc2Sc2ccccc21)CN(C1CCCCC1)C1CCCCC1 (configuration not stated) | 650
Cc1cccc2[nH]c(-c3cccc(-c4ccc(NC(=O)Cc5ccon5)cc4)c3)nc12 | 1090
C[C@@H](NC(=O)c1nn(-c2ccc(Cl)cc2)c(=O)c2ccccc12)C(C)(C)C | 1120
CC(C)CCN1CCCN(Cc2ccc(C(=O)NCc3ccc(Cl)cc3)cc2)CC1 | 1010
CCCCCCCN1CC[C@@H](CCCc2ccnc3ccc(OCCN4CCOCC4)cc23)[C@@H](CC)C1 | 910
CC(=O)Nc1ccc(CN2CCC(N(C)c3ccc(NC(=O)c4cccc(C)c4)cc3)CC2)cc1 | 990
N#Cc1ccc2c(c1)CCN(CCC1CCC(NC(=O)c3ccc(-c4ccccc4)s3)CC1)CC2 (configuration not stated) | 680
C[C@H](NC(=O)c1c(CN2CCC(N3CCCCC3)CC2)c(-c2ccccc2)nc2cc(O)ccc12)C1CCCCC1 | 760
O=C(Nc1ccc2c(c1)CCN2C1CCN(Cc2cccc(F)c2F)C1)c1ccco1 (configuration not stated) | 790
O=C(C=Cc1ccc(Cl)c(Cl)c1)NCCCCCN1CCCC(CCCNS(=O)(=O)c2cccc(C(F)(F)F)c2)C1 (configuration not stated) | 960
CCCCCCN1CCCN(Cc2ccc(C(=O)Nc3ccc(F)c(F)c3)cc2)CC1 | 610
CN1CCN(CCCN(Cc2cccc(-c3ccc(CNCc4ccc5c(c4)OCO5)cc3)c2)C(=O)CCC2CCCC2)CC1 | 1000
COc1ccc(-n2nc(C)c3c2NC(=O)CC3c2ccccc2OCc2ccccc2F)cc1 (configuration not stated) | 900
COc1ccc(N(C)Cc2cnc3nc(N)nc(N)c3n2)cc1 | 280
O=C(/C=C/c1ccc(F)c(Br)c1)NCCCCCN1CCC(c2c[nH]c3ccccc23)CC1 | 860
O=C(Nc1cc(Cl)cc(Cl)c1)Nc1ccccc1C(=O)NC1CCCCC1 | 750
CCC(C)c1ccc(-n2c(Nc3ccccc3)nc3cc(S(N)(=O)=O)ccc32)cc1 (configuration not stated) | 1060
FC(F)(F)Oc1ccc(Nc2cc(-c3ccncc3)nc(-c3cccnc3)n2)cc1 | 670
COc1ccc2nc(C)cc(Nc3ccc(Oc4ccc5ccccc5c4Cl)c(Cl)c3)c2c1 | 500
CC(C)CCNC(=O)C1Cc2c([nH]c3ccc(Br)cc23)C2(CCN(CCc3ccccc3)CC2)N1 (configuration not stated) | 690

Compound | IC50 [nM]
Clc1ccc2c(NCCNc3ccnc4cc(Cl)ccc34)ccnc2c1 | 400
Cc1ccc(C)c(NC(=O)Nc2ccc(C)c(-c3ccc(C(=O)Nc4ccncc4)cc3)c2)c1 | 620
COc1ccc(Nc2nc(NC3CCN(C)CC3)cc(-c3ccc(OC)cc3)n2)cc1 | 540
Clc1ccc(-n2cnc3c(Nc4ccc(Oc5ccccc5)cc4)ncnc32)cc1Cl | 750
COc1ccc(CNCc2cccc(-c3ccc(-c4nc5c(C)cccc5[nH]4)s3)c2)cc1 | 260
Cc1cnc(-c2ccc(NC(=O)c3coc4ccc(N5C[C@@H](C)N(C)[C@@H](C)C5)cc34)cc2)o1 | 650
CCN1CCC(N2CCC(C(=O)Nc3cccc(-c4cccc(Cl)c4)c3)CC2)CC1 | 1080
O=C(Nc1cccc(-c2nn3ncccc3c2-c2ccnc(Nc3cccnc3)n2)c1)c1c(F)cccc1F | 530
CS(=O)(=O)c1cccc(-c2cnc(N)c3cc(-c4ccc(F)cc4)ccc23)c1 | 900
CN(C)C(=NCCCCCCN=C(NC(N)=NCc1ccc(Cl)c(Cl)c1)N(C)C)NC(N)=NCc1ccc(Cl)c(Cl)c1 | 300
O=C1Nc2cccc3c2C1(CCCCCN1CCC(c2c[nH]c4ccncc24)CC1)CCC3 (configuration not stated) | 990
Cc1nc2ccc3ccc(CNc4ccc(C#N)cc4)cc3c2c(=O)[nH]1 | 1440
COc1cc(NC(=O)CCCCCCCN2CCN(C)CC2)c2ncccc2c1 | 610
CN1CCN(c2cc(NC(=O)Nc3cccc(Cl)c3Cl)ccc2Cl)CC1 | 730
Cc1noc(C)c1-c1ccc(C(=C2CCCCCCC2)c2ccc(O)cc2)cc1 | 1050
CCc1ccc(-c2cnc(N)c3cc(-c4ccnc(N)n4)ccc23)cc1 | 1350
COCC(=O)N(Cc1ccccc1-c1cccc(CNCCc2ccccc2)c1)C1CCN(Cc2ccccc2)CC1 | 1100
CN1CCC(C(=O)N(Cc2ccc(-c3ccc(CNCCc4ccccc4)cn3)cc2)Cc2cccc(F)c2)CC1 | 940
c1cncc(CCNCc2ccc(-c3ccc(CNC4Cc5ccccc5C4)cc3)cc2)c1 | 1090
O=C(/C=C/c1ccc(Cl)c(Cl)c1)NC1CCC(CN2CCC(c3c[nH]c4ccncc34)CC2)CC1 (configuration not stated) | 400
O=C(Nc1ccc2c(c1)OCCO2)c1cc(-c2cccnc2)nc2ccc(Cl)cc12 | 710
COc1cc2nc(-c3ccc(Br)cc3)cc(N)c2cc1OC | 170
CS(=O)(=O)NCCCNCc1cccc(-c2cccc(-c3nc4ccc(F)cc4[nH]3)c2)c1 | 940
